Laboratory results reported in paper PMC9367663 (Journal of Enzyme Inhibition and Medicinal Chemistry, 2022).
Where two headings read alike, the source gives them in different places.

Test system: VSV*ΔG(Luc)-S virus harbouring the spike from the D614G variant
Type: cell-based, SARS-CoV-2

On1ccccc1=S [a, 1-hydroxy-2(1H)-pyridinethione]
inhibition of viral entry (0.5 µM): 15.33% | inhibition of viral entry (1 µM): 16.67% | inhibition of viral entry (10 µM): 74.34% | inhibition of viral entry (30 µM): 86.41% | IC50 (read-out: IC50 viral entry): 5.19 µM
